Assay results published in PubChem BioAssay AID2060486 (Molecular Pharmacology Branch, DTP, NCI, 2025).

Tested on: IGROV1 complex spheroids (HUVEC, MSC), viability % test/control
Assay: Anticancer human tumor IGROV1 cell line growth inhibition [GQUAD];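 further: spheroids exposed to compounds for 7 days before readout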;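 on viability, T/C: 100% = DMSO vehicle control viability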
Details: for IC50: curve of first compound; for viability, T/C: stronger effect = lower value
How it was run: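 Multi-cell-type spheroids of tumor cells with HUVEC and mesenchymal stem cells, treated with drug combinations. Concentrations descend in half-log steps from near clinical Cmax, or from 10 microM where Cmax is unknown; viability read-out.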

[1] = second compound 0.0316 µM, first compound 0.0316 µM
[2] = second compound 0.0316 µM, first compound 0.1 µM
[3] = second compound 0.0316 µM, first compound 0.316 µM
[4] = second compound 0.0316 µM, first compound 1 µM
[5] = second compound 0.0316 µM, first compound 3.16 µM
[6] = second compound 0.0316 µM, first compound 10 µM
[7] = second compound 0.1 µM, first compound 0.0316 µM
[8] = second compound 0.1 µM, first compound 0.1 µM
[9] = second compound 0.1 µM, first compound 0.316 µM
[10] = second compound 0.1 µM, first compound 1 µM
[11] = second compound 0.1 µM, first compound 3.16 µM
[12] = second compound 0.1 µM, first compound 10 µM
[13] = second compound 0.316 µM, first compound 0.0316 µM
[14] = second compound 0.316 µM, first compound 0.1 µM
[15] = second compound 0.316 µM, first compound 0.316 µM
[16] = second compound 0.316 µM, first compound 1 µM
[17] = second compound 0.316 µM, first compound 3.16 µM
[18] = second compound 0.316 µM, first compound 10 µM
[19] = second compound 1 µM, first compound 0.0316 µM
[20] = second compound 1 µM, first compound 0.1 µM
[21] = second compound 1 µM, first compound 0.316 µM
[22] = second compound 1 µM, first compound 1 µM
[23] = second compound 1 µM, first compound 3.16 µM
[24] = second compound 1 µM, first compound 10 µM
[25] = second compound 3.16 µM, first compound 0.0316 µM
[26] = second compound 3.16 µM, first compound 0.1 µM
[27] = second compound 3.16 µM, first compound 0.316 µM
[28] = second compound 3.16 µM, first compound 1 µM
[29] = second compound 3.16 µM, first compound 3.16 µM
[30] = second compound 3.16 µM, first compound 10 µM
[31] = second compound 10 µM, first compound 0.0316 µM
[32] = second compound 10 µM, first compound 0.1 µM
[33] = second compound 10 µM, first compound 0.316 µM
[34] = second compound 10 µM, first compound 1 µM
[35] = second compound 10 µM, first compound 3.16 µM
[36] = second compound 10 µM, first compound 10 µM

SMILES: C#Cc1c(F)ccc2cc(O)cc(-c3ncc4c(N5CC6CCC(C5)N6)nc(OCC56CCCN5CC(F)C6)nc4c3F)c12 (stereo unspecified) + Cc1cnc(CNC(=O)c2c(=O)c3ccc(N4CCCN(C)CC4)nc3n3c2sc2ccccc23)cn1
- IC50 (second compound 0.0316 µM): 2820 nM
- IC50 (second compound 0.1 µM): < 31.6 nM
- IC50 (second compound 0.316 µM): < 31.6 nM
- IC50 (second compound 1 µM): < 31.6 nM
- IC50 (second compound 3.16 µM): < 31.6 nM
- IC50 (second compound 10 µM): < 31.6 nM
- viability, T/C [1]: 70%
- viability, T/C [2]: 67.6%
- viability, T/C [3]: 58.5%
- viability, T/C [4]: 56.4%
- viability, T/C [5]: 47.6%
- viability, T/C [6]: 45.3%
- viability, T/C [7]: 40.6%
- viability, T/C [8]: 41.9%
- viability, T/C [9]: 36.5%
- viability, T/C [10]: 27.3%
- viability, T/C [11]: 35.8%
- viability, T/C [12]: 17.3%
- viability, T/C [13]: 21.4%
- viability, T/C [14]: 21.5%
- viability, T/C [15]: 20.7%
- viability, T/C [16]: 24.7%
- viability, T/C [17]: 18.3%
- viability, T/C [18]: 15.1%
- viability, T/C [19]: 16.7%
- viability, T/C [20]: 16.4%
- viability, T/C [21]: 11.1%
- viability, T/C [22]: 13.3%
- viability, T/C [23]: 14.5%
- viability, T/C [24]: 7.91%
- viability, T/C [25]: 9.65%
- viability, T/C [26]: 9.22%
- viability, T/C [27]: 8.28%
- viability, T/C [28]: 10.1%
- viability, T/C [29]: 10%
- viability, T/C [30]: 6.58%
- viability, T/C [31]: 7.28%
- viability, T/C [32]: 7.39%
- viability, T/C [33]: 9.03%
- viability, T/C [34]: 8.87%
- viability, T/C [35]: 8.84%
- viability, T/C [36]: 7.64%

SMILES: CC(=O)O[C@H]1C(=O)[C@@]2(C)[C@H]([C@H](OC(=O)c3ccccc3)[C@]3(O)C[C@H](OC(=O)[C@H](O)[C@@H](NC(=O)c4ccccc4)c4ccccc4)C(C)=C1C3(C)C)[C@]1(OC(C)=O)CO[C@@H]1C[C@@H]2O + Cc1cnc(CNC(=O)c2c(=O)c3ccc(N4CCCN(C)CC4)nc3n3c2sc2ccccc23)cn1
- IC50 (second compound 0.0316 µM): < 31.6 nM
- IC50 (second compound 0.1 µM): < 31.6 nM
- IC50 (second compound 0.316 µM): < 31.6 nM
- IC50 (second compound 1 µM): < 31.6 nM
- IC50 (second compound 3.16 µM): < 31.6 nM
- IC50 (second compound 10 µM): < 31.6 nM
- viability, T/C [1]: 6.85%
- viability, T/C [2]: 7.2%
- viability, T/C [3]: 5.93%
- viability, T/C [4]: 4.84%
- viability, T/C [5]: 5.81%
- viability, T/C [6]: 5%
- viability, T/C [7]: 8.41%
- viability, T/C [8]: 6.77%
- viability, T/C [9]: 4.59%
- viability, T/C [10]: 5.47%
- viability, T/C [11]: 5.23%
- viability, T/C [12]: 5.1%
- viability, T/C [13]: 7.94%
- viability, T/C [14]: 7.36%
- viability, T/C [15]: 5.21%
- viability, T/C [16]: 5.4%
- viability, T/C [17]: 5.37%
- viability, T/C [18]: 5.62%
- viability, T/C [19]: 8.3%
- viability, T/C [20]: 8.57%
- viability, T/C [21]: 6.36%
- viability, T/C [22]: 6.43%
- viability, T/C [23]: 6.28%
- viability, T/C [24]: 5.79%
- viability, T/C [25]: 7.17%
- viability, T/C [26]: 6.44%
- viability, T/C [27]: 7.03%
- viability, T/C [28]: 6.22%
- viability, T/C [29]: 6.75%
- viability, T/C [30]: 5.4%
- viability, T/C [31]: 5.82%
- viability, T/C [32]: 6.66%
- viability, T/C [33]: 6.12%
- viability, T/C [34]: 6.29%
- viability, T/C [35]: 6.72%
- viability, T/C [36]: 6.2%

SMILES: CC(C)(O)C1CCC(Nc2ccc3ncc(-c4cccc(C(F)(F)F)c4)n3n2)CC1 (stereo unspecified) + Cc1cnc(CNC(=O)c2c(=O)c3ccc(N4CCCN(C)CC4)nc3n3c2sc2ccccc23)cn1
- IC50 (second compound 0.0316 µM): 429 nM
- IC50 (second compound 0.1 µM): < 31.6 nM
- IC50 (second compound 0.316 µM): < 31.6 nM
- IC50 (second compound 1 µM): < 31.6 nM
- IC50 (second compound 3.16 µM): < 31.6 nM
- IC50 (second compound 10 µM): < 31.6 nM
- viability, T/C [1]: 71.3%
- viability, T/C [2]: 68.4%
- viability, T/C [3]: 55.7%
- viability, T/C [4]: 34%
- viability, T/C [5]: 20.2%
- viability, T/C [6]: 16.9%
- viability, T/C [7]: 35.6%
- viability, T/C [8]: 32.7%
- viability, T/C [9]: 33.9%
- viability, T/C [10]: 26%
- viability, T/C [11]: 14.1%
- viability, T/C [12]: 10.2%
- viability, T/C [13]: 24.9%
- viability, T/C [14]: 25.8%
- viability, T/C [15]: 17.4%
- viability, T/C [16]: 20.5%
- viability, T/C [17]: 14.8%
- viability, T/C [18]: 11.4%
- viability, T/C [19]: 17%
- viability, T/C [20]: 17.6%
- viability, T/C [21]: 16.2%
- viability, T/C [22]: 16.5%
- viability, T/C [23]: 9.63%
- viability, T/C [24]: 7.48%
- viability, T/C [25]: 12.5%
- viability, T/C [26]: 9.36%
- viability, T/C [27]: 10.4%
- viability, T/C [28]: 10.4%
- viability, T/C [29]: 7.96%
- viability, T/C [30]: 1.27%
- viability, T/C [31]: 10%
- viability, T/C [32]: 9.42%
- viability, T/C [33]: 9.42%
- viability, T/C [34]: 5.73%
- viability, T/C [35]: 8.46%
- viability, T/C [36]: 0.12%
